Experimental data from US7507727B2, “Substituted quinobenzoxazine analogs and methods of using thereof” (Cylene Pharmaceuticals, Inc., priority 2003, dated 2009).
Read-outs that look alike come from different tables or passages of the source.

Columns and labels:
[1] = Pharmacokinetic study in mice, intravenous; format: in vivo; conditions: 25 mg/kg intravenous
Source text: Pharmacokinetic studies for evaluating pharmacokinetic properties of compounds are designed as follows. Male animals (mouse, Balb/c or rat, SD) aged five to six weeks and/or rats weighing more than 200 grams will be used for testing. One group will be untreated and samples taken to be used as a base line. The other three groups will be treated and administered a single dose of compounds by intravenous injection.
Dosing Procedure. Compounds will be administered via IV (lateral tail vein), IP or PO. Animals will be dosed in a systematic order that distributes the time of dosing similarly across all groups. For IP and PO dosing, animals will be manually restrained. For IV bolus dosing or short term IV infusion (one minute), animals will be mechanically restrained but not sedated. Disposable sterile syringes will be used for each animal/dose.
Approximately 0.5 ml of blood will be collected from the naive animals via cardiac puncture prior to the first dose. Terminal blood samples (0.5 ml) will be collected via cardiac puncture from two animals per group per time point according to the above chart. All samples will be placed in tubes containing lithium heparin as anticoagulant and mixed immediately by inverting. They will be centrifuged and the plasma flash frozen in liquid nitrogen, stored at −70° C. or greater and analyzed for drug levels.
A pharmacokinetic study to determine the time course of CX-3543 disposition was conducted in mice following intravenous administered of 25 mg/kg of CX-3543. Regular sampling was undertaken throughout a 24 hour period after IV dose administration, and the key derived pharmacokinetic parameters were derived. FIG. 11 provides the graphical representation of the pharmacokinetic profile of CX-3543 from which key parameters (Table 11) were obtained.
In FIG. 11, Cmax is the maximum CX-3543 plasma concentration attained (expressed in ng/ml); AUC0-inf is the area under the CX-3543 plasma concentration versus time curve, extrapolated from time zero to infinity (expressed in ng.hr/ml); T1/2 is the terminal half life of CX-3543 (expressed in hr); Vdss is the volume of distribution of CX-3543 at steady state (expressed in L/kg); and ClS is the systemic clearance of CX-3543 (expressed in L/hr/kg).

[2] = Pharmacokinetic/toxicokinetic evaluation in dogs; format: in vivo, beagle dogs; conditions: for Accumulation Ratio: Dose 5 to Dose 1 AUC(0-24), 1.2 mg/kg IV; for Tmax / AUC(0-t) / Cmax / half-life: iv, 1.2 mg/kg; for Tmax: median
Procedure: The study was conducted using three (3) test article and one (1) control article group. The control article was the solution (5% dextrose in water) used to dilute the test article prior to administration and was administered at the same volume as the high dose. The test article dosage levels for this study were approximately 12, 3.8, and 1.2 mg/kg. Test and control articles were administered once by intravenous (IV) infusion over approximately a one hour period on five consecutive days. Blood samples for test article blood level analysis was taken as follows (i.e., pk/tk sampling): approximately 1 mL of blood was taken from three male and three female dogs in the low dose group at approximately 20 minutes and 40 minutes from the start of the infusion, and then at the end of infusion (Time 0) and at 5, 10, 15, and 30 minutes, and 1, 2, 4, 8, 12, and 24 hours from the end of the infusion after the first and fifth doses. Also, prior to and immediately after Dose 1 and after Dose 5 for all animals, and for recovery animals prior to necropsy, approximately 5-10 second ECG tracings in a lead II configuration were obtained. Animals were terminated one (1) or 15 days after the last dose. Blood for hematology and clinical chemistry analysis was drawn pre-dose and prior to euthanasia at termination. Following euthanasia, a necropsy was performed to include collection of major organs for microscopic evaluation.
PK/TK: Blood samples for test article blood level analysis were taken. Approximately 1 mL of blood was taken from three males and three females in the low dose group at approximately 20 minutes and 40 minutes from the start of the infusion, and then at the end of infusion (Time 0) and at 5, 10, 15, and 30 minutes, and 1, 2, 4, 8, 12, and 24 hours from the end of the infusion after the first and fifth dose. Plasma (lithium heparin anticoagulant) samples were prepared and analyzed.

[3] = male, Balb/c, mouse, plasma, iv, 25 mg/kg

In the case of `CN1CCCC1CCNC(=O)c1cn2c3c(c(N4CCC(c5cnccn5)C4)c(F)cc3c1=O)Oc1cc3ccccc3cc1-2` (centres unmarked) [CX-3543], the ClS [1] is reported as 20.5 mL/min/kg, the Vd ([1]; male, Balb/c, mouse, plasma, read-out: Vdss) is reported as 7.26 L/kg and the AUC(0-inf) [1, 3] is reported as about 20300 ng·h/mL. It also gave a Cmax [1, 3] of about 5350 ng/mL, a half-life [1, 3] of about 4.6 h and an AUC(0-inf) ([2]; beagle, dog, plasma, female, 1.2 mg/kg IV infusion, Dose 1, read-out: Mean AUC(0-inf)) of 386 ng·h/mL. The AUC(0-inf) ([2]; beagle, dog, plasma, male, 1.2 mg/kg IV infusion, Dose 1, read-out: Mean AUC(0-inf)) was 317 ng·h/mL, the “Dose 5 to Dose 1 ratio for AUC(0-24)” value ([2]; female) was 1.1 and the “AUC(0-inf)” value ([2]; female, Dose 1, 1.2 mg/kg IV, mean) was 386.3 ng·h/mL. For the same molecule, the “Accumulation Ratio” value ([2]; female) was 1.1, the Tmax ([2]; female, beagle, dog, plasma, Dose 1, 1.2 mg/kg IV) was 0.67 h and the Tmax ([2]; female, beagle, dog, plasma, Dose 5, 1.2 mg/kg IV) was 1 h. The AUC(0-t) ([2]; female, beagle, dog, plasma, female, 1.2 mg/kg IV infusion, Dose 1, read-out: Mean AUC(0-24)) was 381 ng·h/mL, the Cmax ([2]; female, beagle, dog, plasma, female, 1.2 mg/kg IV infusion, Dose 1, read-out: Mean Cmax) was 139 ng/mL and the half-life ([2]; female, beagle, dog, plasma, female, 1.2 mg/kg IV infusion, Dose 1, read-out: mean terminal half-life (converted)) was 3.8 h. The AUC(0-t) ([2]; female, beagle, dog, plasma, female, 1.2 mg/kg once daily, Dose 5, read-out: Mean AUC(0-24)) was 444 ng·h/mL, the Cmax ([2]; female, beagle, dog, plasma, female, 1.2 mg/kg once daily, Dose 5, read-out: mean Cmax) was 145 ng/mL and the Cmax ([2]; female, beagle, dog, plasma, female, Dose 1, 1.2 mg/kg IV once daily, mean, read-out: Cmax) was 139 ng/mL. The half-life ([2]; female, beagle, dog, plasma, female, Dose 1, 1.2 mg/kg IV, harmonic mean, read-out: T1/2 (converted)) was 3.8 h, the AUC(0-t) ([2]; female, beagle, dog, plasma, female, Dose 1, 1.2 mg/kg IV, mean, read-out: AUC(0-24)) was 381 ng·h/mL and the Cmax ([2]; female, beagle, dog, plasma, female, Dose 5, 1.2 mg/kg IV once daily for 5 days, mean, read-out: Cmax) was 145 ng/mL. It also gave a half-life ([2]; female, beagle, dog, plasma, female, Dose 5, 1.2 mg/kg IV, harmonic mean, read-out: T1/2 (converted)) of 5.2 h, an AUC(0-t) ([2]; female, beagle, dog, plasma, female, Dose 5, 1.2 mg/kg IV, mean, read-out: AUC(0-24)) of 444 ng·h/mL and a half-life ([2]; female, beagle, dog, plasma, female, Dose 5, read-out: mean terminal half-life (converted)) of 5.2 h. For the same molecule, the “Dose 5 to Dose 1 ratio for AUC(0-24)” value ([2]; male) was 1.2, the “AUC(0-inf)” value ([2]; male, Dose 1, 1.2 mg/kg IV, mean) was 316.9 ng·h/mL and the “Accumulation Ratio” value ([2]; male) was 1.2. The Tmax ([2]; male, beagle, dog, plasma, Dose 1, 1.2 mg/kg IV) was 0.67 h, the Tmax ([2]; male, beagle, dog, plasma, Dose 5, 1.2 mg/kg IV) was 1 h and the AUC(0-t) ([2]; male, beagle, dog, plasma, male, 1.2 mg/kg IV infusion, Dose 1, read-out: Mean AUC(0-24)) was 314 ng·h/mL. The Cmax ([2]; male, beagle, dog, plasma, male, 1.2 mg/kg IV infusion, Dose 1, read-out: Mean Cmax) was 108 ng/mL, the half-life ([2]; male, beagle, dog, plasma, male, 1.2 mg/kg IV infusion, Dose 1, read-out: mean terminal half-life (converted)) was 3.2 h and the AUC(0-t) ([2]; male, beagle, dog, plasma, male, 1.2 mg/kg once daily, Dose 5, read-out: Mean AUC(0-24)) was 363 ng·h/mL. For the same molecule, the Cmax ([2]; male, beagle, dog, plasma, male, 1.2 mg/kg once daily, Dose 5, read-out: mean Cmax) was 126 ng/mL, the Cmax ([2]; male, beagle, dog, plasma, male, Dose 1, 1.2 mg/kg IV once daily, mean, read-out: Cmax) was 108 ng/mL and the half-life ([2]; male, beagle, dog, plasma, male, Dose 1, 1.2 mg/kg IV, harmonic mean, read-out: T1/2 (converted)) was 3.2 h. For the same molecule, the AUC(0-t) ([2]; male, beagle, dog, plasma, male, Dose 1, 1.2 mg/kg IV, mean, read-out: AUC(0-24)) was 314 ng·h/mL, the Cmax ([2]; male, beagle, dog, plasma, male, Dose 5, 1.2 mg/kg IV once daily for 5 days, mean, read-out: Cmax) was 126 ng/mL and the half-life ([2]; male, beagle, dog, plasma, male, Dose 5, 1.2 mg/kg IV, harmonic mean, read-out: T1/2 (converted)) was 5.2 h. It also gave an AUC(0-t) ([2]; male, beagle, dog, plasma, male, Dose 5, 1.2 mg/kg IV, mean, read-out: AUC(0-24)) of 363 ng·h/mL and a half-life ([2]; male, beagle, dog, plasma, male, Dose 5, read-out: mean terminal half-life (converted)) of 5.2 h.
